Experimental data taken from ChEMBL document CHEMBL3817784, “The role of transporter ectodomains in drug recognition and binding: phlorizin and the sodiumglucose cotransporter” (Medchemcomm, 2016).

Assays:
[1] = target: T1, Sodium/glucose cotransporter 2 (Rattus norvegicus, UniProt P53792); test: Binding affinity to SGLT2 in isolated rat renal cortex brush border membranes using maleimide-PEG800-NHS to couple compound to AFM cantilever tip
T1 sequence (P53792 whole entry): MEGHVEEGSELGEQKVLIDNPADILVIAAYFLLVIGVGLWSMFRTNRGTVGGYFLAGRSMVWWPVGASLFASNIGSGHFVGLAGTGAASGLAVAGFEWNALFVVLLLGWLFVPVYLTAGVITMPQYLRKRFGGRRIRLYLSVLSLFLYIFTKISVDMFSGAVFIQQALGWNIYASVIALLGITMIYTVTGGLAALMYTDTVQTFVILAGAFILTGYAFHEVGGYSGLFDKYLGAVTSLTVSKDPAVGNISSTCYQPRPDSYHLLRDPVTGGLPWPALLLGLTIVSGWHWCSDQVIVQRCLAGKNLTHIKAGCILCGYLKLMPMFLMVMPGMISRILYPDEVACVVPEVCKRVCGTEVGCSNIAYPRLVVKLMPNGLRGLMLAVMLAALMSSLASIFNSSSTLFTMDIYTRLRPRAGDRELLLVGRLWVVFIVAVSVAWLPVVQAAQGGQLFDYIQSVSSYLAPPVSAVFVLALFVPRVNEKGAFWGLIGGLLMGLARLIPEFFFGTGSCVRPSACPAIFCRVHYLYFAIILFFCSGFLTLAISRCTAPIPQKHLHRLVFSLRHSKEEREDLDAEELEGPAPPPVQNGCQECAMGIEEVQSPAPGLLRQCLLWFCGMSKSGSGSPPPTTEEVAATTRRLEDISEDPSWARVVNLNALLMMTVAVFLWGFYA

Homo sapiens [2] = species: Homo sapiens; test: Binding affinity to SGLT1 D621W mutant (unknown origin) by tryptophan fluorescence quenching method
Homo sapiens [3] = species: Homo sapiens; test: Binding affinity to SGLT1 R601W mutant (unknown origin) by tryptophan fluorescence quenching method

Row | Structure (SMILES) | Kd [1] [nM] | Qmax (Homo sapiens [2]) [%] | Qmax (Homo sapiens [3]) [%]
1 | O=C(CCCCCS)Nc1cc(CCC(=O)c2c(O)cc(O)cc2O[C@@H]2O[C@H](CO)[C@@H](O)[C@H](O)[C@H]2O)ccc1O | 200 |  | 
2 | O=C(CCc1ccc(O)cc1)c1c(O)cc(O)cc1O[C@@H]1O[C@H](CO)[C@@H](O)[C@H](O)[C@H]1O |  | 80 | 67
